This is an account of results in patent US10883142B2, “Risk assessment for phenytoin-induced adverse drug reactions” (priority 2011, dated 2021).

The structures appear in SMILES notation.

The conditions of data set [1]: normal therapeutic range, plasma; cited from earlier work.
Data set [2] is described as follows: Phenytoin plasma concentration during ADR onset, HPLC analysis of patients' plasma. It counts as in vivo, human. The procedure:
In this study, the phenytoin concentrations during ADR onset were determined from patients' plasma by HPLC analysis and estimated by non-linear pharmacokinetics formula: […]
Therapeutic levels of phenytoin are usually between 10-20 μg/ml. […] We also compared the phenytoin plasma levels of patients who carried CYP2Cs variants. […] Defective metabolism of phenytoin may increase the risk of drug accumulation, and leads to its risk to induce severe hypersensitivity reactions, such as SJS/TEN and DRESS.

For data set [3] the following is noted: patients who received phenytoin; cited from earlier work.

Regarding `O=C1NC(=O)C(c2ccccc2)(c2ccccc2)N1` [phenytoin], in data set [1], the “therapeutic levels of phenytoin” value is 10 to 20 µg/mL. For the same compound, the phenytoin concentrations entry in data set [2] (5 phenytoin-ADRs patients who carry CYP2C9*3 variant (of 23 analysed)) was “higher than 20 μg/ml”. The phenytoin plasma levels was 40 to 50 µg/mL in data set [2] (patients with phenytoin-SJS/TEN, P=0.006 vs. tolerant control) and 5 to 15 µg/mL in data set [2] (tolerant control patients, after taking drug). The “patients who developed hypersensitivity reactions” value in data set [3] is “more than 19%”.
